According to US8202902B2, “Bivalent SMAC mimetics and the uses thereof” (The Regents of the University of Michigan, priority 2006, dated 2012):

Legend:
[1] = target: T1, human XIAP protein (residues 120-356) (Homo sapiens, UniProt P98170); experiment: Fluorescence-polarization-based binding assay to XIAP protein (Smac2-F tracer)
T1 construct: human XIAP protein (residues 120-356) (10 nM)
Experimental: The polarization values were measured after 2 hours incubation, using the Ultra plate reader. […] Curve fitting is performed using GraphPad Prism® software.

[2] = system: MAMEL-3M melanoma cell line; experiment: Cell growth inhibition, WST-8 assay, MAMEL-3M; format: cell-based; details: 96 h, 4 days
Experimental: Cells were seeded in 96-well flat bottom cell culture plates at a density of 3000 cells/well with a tested compound and incubated at 37° C. in an atmosphere of 95% air and 5% CO2 for 4 days. The rate of cell growth inhibition after treatment with different concentrations of the compound was determined using a WST-8 kit (2-(2-methoxy-4-nitrophenyl)-3-(4-nitrophenyl)-5-(2, 4 disulfophenyl)-2H-tetrazolium monosodium salt; Dojindo Molecular Technologies, Inc., Gaithersburg, Md.). WST-8 was added at a final concentration of 10% to each well, and then the plates were incubated at 37° C. for 2-3 hrs. The absorbance of the samples was measured at 450 nm using a ULTRA Tecan Reader (Molecular Device).

[3] = system: MDA-MB-231 breast cancer cell line; experiment: Apoptosis assay (Annexin V/P.I.), MDA-MB-231; format: cell-based, human; details: 1 nM for 12 h
Experimental: Analysis of apoptosis was performed using an apoptosis detection kit (BioVision Research Products, Mountain View, Calif.) according to the manufacturer's protocol. Briefly, cells were treated with Smac mimetics for 12 hours, harvested and washed with ice-cold PBS. Cells were stained with Annexin V-FITC and Propidium iodide (P.I.) for 15 minutes at room temperature in the dark and immediately analyzed by FACS calibur flow cytometer (Becton Dickinson, Erembodegem, Belgium). Cells that were stained Annexin V (+) and P.I. (−) were considered early-stage apoptotic cells. Cells that were stained annexin V (+) and P.I. (+) were considered late-stage apoptotic cells and cells that were stained annexin V (−) and P.I. (+) were considered necrotic cells (FIG. 6).
Treatment with SM-164 at 1 nM for 12 h induced 32%, 33%, and 37% of the MDA-MB-231, SK-OV-3 and MALME-3M cells to undergo apoptosis, respectively (FIGS. 12-14).

[4] = system: XIAP stably transfected Jurkat leukemia cell line (XIAP-JK) and vector control cell line (VEC-JK); experiment: XIAP-overexpressing Jurkat cells, Smac mimetics with TNFα; format: cell-based
Source text: The effect of XIAP overexpression in cancer cells on TNFα-dependent apoptosis induction by Smac mimetics was investigated. Since stable transfection of XIAP in those sensitive cancer cell lines was unsuccessful, the previously well-characterized XIAP stably transfected Jurkat leukemia cell line (XIAP-JK) and its vector control cell line (VEC-JK) were employed (Wilkinson et al., Mol. Cell. Biol. 24:7003 (2004)). The VEC-JK cell line with low expression of XIAP was sensitive to SM-122 or SM-164 in combination with TNFα (FIG. 43).

T1 sequence (P98170 120-356): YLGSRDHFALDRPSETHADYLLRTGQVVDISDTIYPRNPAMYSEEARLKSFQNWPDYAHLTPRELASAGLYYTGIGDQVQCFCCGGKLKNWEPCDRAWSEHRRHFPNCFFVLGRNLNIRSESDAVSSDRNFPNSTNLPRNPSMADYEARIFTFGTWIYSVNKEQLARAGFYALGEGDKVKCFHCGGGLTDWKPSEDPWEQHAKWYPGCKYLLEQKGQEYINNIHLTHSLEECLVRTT

## CN[C@@H](C)C(=O)N[C@H]1CCCC[C@H]2CC[C@@H](C(=O)N[C@@H](c3ccccc3)c3cn(CCCCc4ccc(CCCCn5cc([C@@H](NC(=O)[C@@H]6CC[C@@H]7CCCC[C@H](NC(=O)[C@H](C)NC)C(=O)N76)c6ccccc6)nn5)cc4)nn3)N2C1=O [SH-164]
[1]
  binding affinity better than the monovalent Smac mimetic SH-122: more than 500 fold
  more potent than the natural Smac peptide AVPI: > 5000 times
[2]
  IC50: 1.4 nM
[3]
  cells undergoing apoptosis: 32%
[4]; VEC-JK cell line
  sensitivity in combination with TNFα: sensitive
[4]; XIAP-JK cell line
  sensitivity in combination with TNFα: much less effective than in the VEC-JK cell line
